Patent US5693609A, “Acylated insulin analogs” (Eli Lilly and Company, priority 1994, dated 1997)

Columns and labels:
male rats = conditions: 25 U/mL, cited from earlier work; for hypoglycemic effect, administered intramuscularly: intramuscularly (FIG. 6 of Hashimoto et al.); for hypoglycemic effect, administered intravenously: intravenously (FIG. 5 of Hashimoto et al.)
conscious dog model = test: Plasma glucose after subcutaneous injection in conscious dog model; type: in vivo, beagles; conditions: for Plasma glucose concentration: n = 1
Method: Experiments were conducted in overnight-fasted, conscious, adult (1-2 years of age) male and female beagles weighing 8-15 kg. At least ten days prior to the study, animals were anesthetized with isoflurane, and a cut-down was made in the left or right inguinal region. Silastic catheters were inserted into the femoral artery and into the proximal caudal femoral vein and secured with 4-0 silk suture. The free ends of the catheters were passed subcutaneously to the back using a trocar needle. The catheters were then filled with a glycerol/heparin solution (3:1, v/v; final heparin concentration of 250 KIU/ml), and the free ends were knotted and placed in a subcutaneous pocket to allow complete closure of the skin. Keflex was administered both pre-operatively (20 mg/kg, IV and 20 mg/kg, I.M.) and post-operatively (250 mg, p.o. once daily for seven days) to prevent infections. Torbugesic (1.5 mg/kg, I.M.) was administered post-operatively to control pain. Blood was drawn just prior to the study day to determine the health of the animal. Only animals with hematocrits above 38% and leukocyte counts below 16,000/mm^3 were used. The afternoon before the experiment, the free ends of the catheters were exteriorized from the subcutaneous pocket through a small incision made under local anesthesia (2% lidocaine), and the dog was fitted with a tether system jacket and collar assembly. The morning of the experiment, the contents of the arterial catheter were aspirated (only the arterial line was used in these studies), the catheter was flushed with saline, and an extension line (protected by a stainless steel tether) was attached to the catheter. The dog was placed in a metabolic cage, and the catheter extension line and tether was attached to a swivel system to allow the dog to move freely about the cage. After a 15 minute rest period (45 minutes, controls), blood (2-3.5 ml) was drawn for determination of the plasma glucose concentration. A second baseline sample was drawn 15 minutes later (0 time). Test substance (phosphate buffered saline or […] of B28-N^ε -Palmitoyl Lys^B28 Pro^B29 -human insulin; this does is the molar equivalent of 1.75 U/kg of human insulin) was administered subcutaneously in the dorsal of the neck.
Arterial blood samples (2-3.5 ml) were then taken at least every 30 minutes for the next two (controls) to six (B28-N^ε -palmitoyl Lys^B28 Pro^B29 -human insulin) hours. Samples were collected in vacuum blood collection tubes containing disodium EDTA and immediately placed on ice. The samples were centrifuged, and the resulting plasma was transferred to polypropylene test tubes and stored on ice or refrigerated for the duration of the study.
At the conclusion of the experiment, the animal was anesthetized (isoflurane); the catheter was flushed with fresh saline and filled with the glycerol/heparin mixture; the free end of the catheter was knotted and placed subcutaneously as described earlier; and antibiotic was administered (300 mg Keflex, I.M.). Plasma glucose concentrations were determined the day of the study using a glucose oxidase method in a Beckman glucose analyzer. Values are listed as the mean ± the standard error of the mean (SEM).

Substance | hypoglycemic effect, administered intramuscularly (male rats) | hypoglycemic effect, administered intravenously (male rats) | Plasma glucose concentration (conscious dog model; 30 minutes after 10.5 subcutaneously) [mg/dL] | Plasma glucose concentration (conscious dog model; 60 minutes after 10.5 subcutaneously) [mg/dL] | Plasma glucose concentration (conscious dog model; 90 minutes after 10.5 subcutaneously) [mg/dL] | Plasma glucose concentration (conscious dog model; 120 minutes after 10.5 subcutaneously) [mg/dL] | Plasma glucose concentration (conscious dog model; 150 minutes after 10.5 subcutaneously) [mg/dL] | Plasma glucose concentration (conscious dog model; 180 minutes after 10.5 subcutaneously) [mg/dL] | Plasma glucose concentration (conscious dog model; 210 minutes after 10.5 subcutaneously) [mg/dL] | Plasma glucose concentration (conscious dog model; 240 minutes after 10.5 subcutaneously) [mg/dL] | Plasma glucose concentration (conscious dog model; 270 minutes after 10.5 subcutaneously) [mg/dL] | Plasma glucose concentration (conscious dog model; 300 minutes after 10.5 subcutaneously) [mg/dL] | Plasma glucose concentration (conscious dog model; 330 minutes after 10.5 subcutaneously) [mg/dL] | Plasma glucose concentration (conscious dog model; 360 minutes after 10.5 subcutaneously) [mg/dL] | decrease in the plasma glucose concentration (conscious dog model; six hours post-injection, vs baseline) [%] | activity in conscious dog model (in words) (conscious dog model; subcutaneous, 10.5) | Plasma glucose concentration (conscious dog model; time 0 minutes (baseline), overnight-fasted dog) [mg/dL] | Plasma glucose concentration (conscious dog model; time -15 minutes (baseline, before injection), overnight-fasted dog) [mg/dL]
B1,B29-N^α N^ε -dipalmitoyl insulin [B1,B29-Nα, N^ε -dipalmitoyl insulin] | negligible effect | very low activity |  |  |  |  |  |  |  |  |  |  |  |  |  |  |  | 
B1-N^α -palmitoyl insulin | only a short hypoglycemic effect | very low activity |  |  |  |  |  |  |  |  |  |  |  |  |  |  |  | 
B28-N^ε -Palmitoyl Lys^B28 Pro^B29 -human insulin |  |  | 114 | 107 | 102 | 99 | 101 | 100 | 100 | 98 | 87 | 82 | 79 | 75 | 35 | insulin-like activity | 116 | 116
